Reference: a melting point compilation (Tetko et al.; mined from patent text by program, amines drawn as free bases though some values may be those of a salt)

| SMILES | melting point [°C] |
| --- | --- |
| NC(=O)c1sc2nccc(N3CCCC(c4ccccc4)C3)c2c1N (stereo not drawn) | 267 to 269 |
| CCCc1c[nH]c(-c2ccc(Cl)cc2)c1-c1ccc(Cl)cc1 | 90 to 93 |
| COC(=O)COc1cc2c(c3c1c(C(=O)C(N)=O)c(C)n3Cc1ccccc1)CCCC2 | 115 to 125 |
| CCCCCCCCCCNC(=O)c1cc(NCC(=O)OC)cc(C(=O)NCCCCCCCCCC)c1 | 108 to 109 |
| CCCCC1(CCCC)CCc2c(OCc3ccccn3)cccc2C1O (stereo not drawn) | 106 to 107 |
| O=C(NCCc1c[nH]c2ccc([N+](=O)[O-])cc12)C(F)(F)F | 200 to 201 |
| NCCC(Nc1ccccc1)c1ccccc1 (stereo not drawn) | 104 to 105 |
| CCOC(=O)c1sc(Oc2ccccc2)c2c1CCC(C(OCC)OCC)C2=O (stereo not drawn) | 73 to 74 |
| Cc1nc2c(N)nc3ccccc3c2n1CCCCNS(C)(=O)=O | 229 to 230 |
| O=C(NC(=NCCCc1c[nH]cn1)NCC(O)COc1ccccc1)c1ccccc1 (stereo not drawn) | 129 |
| CC(=O)NCC1CC(c2cc(F)c(N3CCN(C(=O)C4COc5ccccc5O4)CC3)c(F)c2)=NO1 (single isomer, unassigned; (-)) | 158 to 159 |
| CC(=O)Nc1nc(C)c(S(=O)(=O)NCCO)s1 | 211 |
| COc1cc(C#N)c(N=C(C)N2CCc3cc(OC)c(OCc4ccccc4)cc3C2)cc1OC | 72 to 73 |
| CCCCOC(=O)C(NC(=O)c1cc([N+](=O)[O-])cc([N+](=O)[O-])c1)C(C)C (stereo not drawn) | 88 to 91 |
| Cc1cccc(Cl)c1C(=O)N[C@@H](Cc1ccc(-c2c(C)n(C)c(=O)n(C)c2=O)cc1)C(=O)O | 238 to 240 |
| Clc1ccc(C#Cc2c3ccccc3c(C#Cc3ccc(Cl)cc3)c3ccccc23)cc1 | 268 |
| O=P1(O)Oc2c(Cl)cc(Cc3ccccc3)cc2-c2ccccc21 | 240 |
| Cn1nc(-c2c(F)cccc2Cl)nc1-c1cc(-c2cccc(C(F)(F)F)c2)sc1Cl | 53 to 54 |
| CCC(C)(C)N=C(NC#N)Nc1cc(F)cc(Cl)c1 | 130 to 131 |
| C[Si](C)(C)C#Cc1cn(C2CC(O)C(COC(c3ccccc3)(c3ccccc3)c3ccccc3)O2)c(=O)[nH]c1=O (stereo not drawn) | 104 |
| Cc1ccc(-c2c(NS(=O)(=O)c3ccc(C(C)(C)COc4ncc(Br)cn4)cc3)ncnc2OCCOc2ncc(Br)cn2)cc1 | 156 to 158 |
| Cn1nnc(-c2ccc(C=O)cc2)n1 | 137 to 139 |
| COc1ccc(-c2nnc3c4ccccc4c(N(C)CCCCl)nn23)cc1 | 113 to 115 |
| CCCCCCCCCCCCCS(=O)c1nc(NC(=O)Nc2c(C(C)C)cccc2C(C)C)n[nH]1 (stereo not drawn) | 178 to 181 |
| c1ccc(C2CSC(c3ccccc3)N2)cc1 (mixture of isomers) | 120 |

| SMILES | melting point [°C] |
| --- | --- |
| COC(=O)c1ccc(CCc2c[nH]c3nc(N)[nH]c(=O)c23)cc1 | > 220 |
| CN1C=NN(c2cccc(N)c2)N1 | 93 to 95 |
| COC(=O)C1(C(=O)Nc2ccc(Br)cc2C)C2CCCCC21 (stereo not drawn) | 105 to 107 |
| NC(=O)N1C(=O)C(C(=O)c2ccc(Cl)s2)c2cc(Cl)ccc21 (stereo not drawn) | 220 to 222 |
| CCOCn1cc(C(C)C)c(=O)[nH]c1=O | 78.4 |
| CC(CCCc1ccccc1)Oc1cc(O)c2c(c1)CC(C)(C)CC2C(N)=O (stereo not drawn) | 155 to 157 |
| CCN(CC)c1ccc(NC(=O)N(C[C@H]2CC[C@H](CN(C(=O)Nc3ccc(N(CC)CC)cc3)C3CCCCCC3)CC2)C2CCCCCC2)cc1 | 170 to 175 |
| CCOC(=O)COc1ccc(NC(=O)NC(=O)c2ccc(C(=N)N)cc2)cc1 | 198 to 200 |
| CC(=O)N[C@H]1CC[C@H](CCN2CCN(c3ncc(C)c4c3CCO4)CC2)CC1 | 196 |
| COc1ccc(F)c(-n2c(=O)[nH]c3c(C(N)=O)nc(-c4cccc(O)c4)nc32)c1 | > 260 |
| Cc1c2c(nc3c(C(F)(F)F)cccc13)CCCNC2 | 78 |
| C=CCN(CC)C(=O)n1cnc(S(=O)CC)n1 (stereo not drawn) | 59 to 61 |
| N#CCC=Cc1ccccc1S(N)(=O)=O | 144 to 145 |
| CNc1ccc(-c2nc(N3CCOCC3)c3sc(C(C)(C)Nc4ncc(C(=O)NO)cn4)cc3n2)cn1 | 200 to 205 |
| COc1ncccc1OCC(O)CNC(C)C (stereo not drawn) | 50 to 65 |
| c1ccc(-c2ccc(C34CCCN(CC3)C4)nn2)cc1 (stereo not drawn) | 133 to 134 |
| CS(=O)(=O)Oc1cc(=O)c(OCc2ccccc2)cn1Cc1ccccc1 | 115 to 117 |
| COC(=O)c1ccc2oc(-c3cc(C)ccc3OC)cc(=O)c2c1 | 154 to 156 |
| O=C(O)c1ccc(C=CC=CC(=O)c2ccccc2)cc1 | 210 to 214 |
| COc1cc(C=C2CC(=O)OC2=O)cc(OC)c1OC | 184 to 187 |
| CC(=O)C1CCC2C3CCC4CC(O)(c5ccccc5)CCC4(C)C3CCC12C (stereo not drawn) | 182 to 184 |
| CN(C)C1CCc2[nH]c3ccc(O)cc3c2C1 (stereo not drawn) | 202 to 204 |
| CC(C)(C)OC(=O)N1CCC(Oc2ccc(C3=NNC(=O)CC3)c(F)c2)CC1 | 146 to 148 |
| Cc1cc(NC(=O)c2c(Cl)cccc2Cl)c2nccc(Cl)c2c1C | 190 to 193 |
| O=C1NC(O)c2cc(Br)ccc21 (stereo not drawn) | 258 to 261 |

| SMILES | melting point [°C] |
| --- | --- |
| CCOC(=O)C(Cc1ccc2ccccc2c1Br)C(=O)OCC | 60 to 65 |
| CN(C)c1ncnc2[nH]c(-c3ccc(CO)cc3)cc12 | 306 to 309 |
| CCOC(=O)[C@H](CSC[C@H](Cc1ccccc1)NC(=O)OCc1ccccc1)N[C@@H](C)C(=O)O | 124 to 127 |
| COC(=O)c1cc(C(=O)c2c(C)c(OC)c3c(OCC(=O)OC(C)(C)C)cccn23)ccc1N | 188 |
| CN=C(NC#N)NCCSCc1[nH]cnc1Br | 144 to 146 |
| CCCCNC(=O)Nc1ccc(-n2ccnc2)cc1C(=O)NCC1CCN(C(c2ccccc2)c2ccccc2)CC1 | 197 to 199 |
| O=C1c2cc(F)ccc2-n2c1nc1ccccc1c2=O | 273 to 276 |
| CC(=O)NNC(=O)Nc1ccccc1-c1ccc(C)cc1 | 102 to 104 |
| CN1C(C)(C)CC(OC(=O)NNC(=O)C(=O)NC2CC(C)(C)NC(C)(C)C2)CC1(C)C | 165 to 170 |
| CC(C)c1sc2ncnc(N)c2c1-c1ccc([N+](=O)[O-])cc1 | > 260 |
| Nc1cc(=O)nc(Nc2ccccc2)n1-c1ccc(Cl)cc1 | 216 to 222 |
| CC(C)C1c2ccc(F)cc2CCC1(O)CC(=O)O (stereo not drawn) | 102 to 104 |
| Fc1cc2c(Nc3ccc(F)c(Br)c3)ncnc2cn1 | 269 to 270 |
| CC12CC=CCC1CCC1C2CCC2(C)C(C(N)=O)CCC12 (stereo not drawn) | 199 to 202 |
| CSc1sc(C(=O)O)c2c1-c1nn(C)cc1CC2 | 290 to 291 |
| CC(C)(Cn1cncn1)C(O)(CCc1ccc2ccccc2c1)Cn1cncn1 (stereo not drawn) | 77 to 80 |
| COCCn1nc2c(N)nc3ccccc3c2c1CCCCCl | 156 to 157 |
| CC(O)CNCc1cc2c(=O)c(C(=O)NCc3ccc(Cl)cc3)cn(C)c2o1 (stereo not drawn) | 172 to 173 |
| COC(=O)C1=C(c2cc(OC)c(OC)c(OC)c2)c2ccccc2S(=O)(=O)N1Cc1ccc2c(c1)OCO2 | 182 to 183 |
| Cn1cc(C=CC(=O)NCCO)c([N+](=O)[O-])n1 | 176 to 178 |
| O=C1[C@@H](N2C(=O)c3ccccc3C2=O)[C@@H](CCl)N1Cc1ccccc1 (relative stereo) | 149 |
| CCCCc1oc2ccccc2c1C(=O)NCc1ccc2c(Br)c(OC(Cc3ccccc3)C(=O)OC)ccc2c1 (stereo not drawn) | 110 to 112 |
| CC(C#N)=C1CCN(c2ccc(N3C[C@H](CNC(=O)CC#N)OC3=O)cc2F)CC1 | 194 to 196 |
| CC(C)(C)OC(=O)Oc1ccc(C(=O)c2ccc(OC(=O)OC(C)(C)C)cc2)cc1 | 141 to 143 |
| CCn1cc(C(=O)O)c(=O)cc1-c1ccc(N2CCCC2)cc1 | 276 to 278 |

| SMILES | melting point [°C] |
| --- | --- |
| Cc1cc(OCCNC(=O)C2Cc3ccccc3N2S(=O)(=O)c2ccc(-c3cc(C(F)(F)F)ccc3Cl)cc2)ccc1CC(=O)O (stereo not drawn) | 110 to 115 |
| NC(=O)[C@@H]1CCCN1C(=O)/C=C/S(=O)(=O)c1ccccc1 | 157 to 158 |
| COC(=O)Nc1ccc(-c2ncn(-c3ccc(OC(F)(F)C(F)(F)F)cc3)n2)cc1 | 183 to 184 |
| Cn1c(=O)c([N+](=O)[O-])c(N2CCN(C(=O)c3cccs3)CC2)c2ccccc21 | 105 |
| Cc1ccc2c(c1)C1c3cc4c(cc3OCC1NC2=O)OCO4 (stereo not drawn) | > 250 |
| COC=C(C(=O)OC)c1ccc(OC(C)=O)cc1 | 69 to 70 |
| Nc1ccc(SCCOC2OC(CO)C(OC3OC(CO)C(O)C(O)C3O)C(O)C2O)cc1 (stereo not drawn) | 104 to 106 |
| COC(=O)C1Cc2ccccc2N1c1ncnc2cc(OC)c(OC)cc12 (stereo not drawn) | 186 to 190 |
| Oc1ccc2c(c1)CN(Cc1ccc(Cl)cc1)CC2 | 177 to 178 |
| CCCCOC(=O)[C@H]1CN(c2ccc3c(c2)oc(=O)n3C)C(=O)O1 | 182 to 184 |
| CC(C)(C)[Si](C)(C)OC1CCCc2cnc3cc(OCc4ccccc4)ccc3c21 (stereo not drawn) | 123 to 125 |
| Cc1ccc2nc(-c3ccccc3)oc2c1 | 93 |
| CC(N)c1ccccc1O (single isomer, unassigned; (+)) | 83 to 83.5 |
| Fc1ccc(Cn2cnc3c(-c4ccco4)nc(Cl)nc32)cc1 | 152 to 155 |
| CCCC1CCC(c2ccc(-c3ccc(N=C=S)cc3)cc2)CC1 (stereo not drawn) | 149 |
| CC(C)Nc1nc2c(F)c(F)c(F)cc2n1[C@@H]1O[C@H](C)[C@@H](O)[C@H]1O | 148 to 151 |
| COc1ccc(-n2nc(CCC(=O)NO)cc2-c2ccc(Cl)cc2)cc1 | 154 to 156 |
| CN(SSN(C)S(=O)(=O)c1ccccc1)S(=O)(=O)c1ccccc1 | 101 to 106 |
| CC1(C(=O)n2ccnc2)CC1 | 34 to 35 |
| O=C(c1ccc(SCCO)c([N+](=O)[O-])c1)c1ccc(SCCO)c([N+](=O)[O-])c1 | 193 to 197 |
| CCC(Oc1cc(OC)ccc1C(=O)c1ccc(OCc2nc(-c3ccccc3)oc2C)cc1)C(=O)O (stereo not drawn) | 161 to 162 |
| O=C(NC1CCCCC1)n1cc(F)c(=O)[nH]c1=O | 276 to 278 |
| COC(=O)C1(Nc2cc(Cl)c(Cl)cc2N)CCSC1 (stereo not drawn) | 162 |
